# System: patients with recurrent malignant glioma classified as WHO grade III or IV
# Test: Phase 1 dose-escalation clinical trial: safety (TEAEs, DLTs, MTD);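 also: dosing continued until unacceptable toxicity, consent withdrawal, loss to follow-up or investigator/sponsor decision, with cohorts of 1-6 patients per dose level and MTD estimated by BLRM from cumulative DLT data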
# [1] = 20 mg (N=2), cutoff April 21, 2023
# [2] = 20 mg QD (N=2), cutoff April 21, 2024
# [3] = 40 mg (N=4), cutoff April 21, 2023
# [4] = 40 mg QD (N=4), cutoff April 21, 2024
# [5] = 80 mg (N=3), cutoff April 21, 2023
# [6] = 80 mg QD (N=3), cutoff April 21, 2024
# [7] = 120 mg (N=6), cutoff April 21, 2023
# [8] = 120 mg QD (N=6), cutoff April 21, 2024
# [9] = 180 mg (N=3), cutoff April 21, 2023
# [10] = 180 mg QD (N=6), cutoff April 21, 2024
# Procedure: Administration to each subject was continued until unacceptable toxicity occurred, consent was withdrawn, the subject was lost to follow-up, or discontinuation was determined by the investigator and/or the sponsor.
# The present study consists of two parts: a dose-escalation part (Part 1) and a dose-expansion part (Part 2).
# Each dose level was evaluated in cohorts of 1-6 patients. In all cohorts, administration of the investigational drug to the second and subsequent patients was permitted after completion of all safety assessments on Day 8 of Cycle 1 in the first patient. […] At dose level 2 in the dose-escalation part, at least three patients were required to be evaluated before escalation to a higher dose level. After completion of each cohort, the probability of observing a DLT at each dose level in the present study was updated using the BLRM based on cumulative data from the preceding cohorts, and the MTD was estimated.
smiles,measurement,setting,value
"CC1(C)Oc2cc(Cl)ccc2[C@@H]2OCC3(CCN(CCn4ccnc4)CC3)C[C@H]21 [Compound 1, (4'aR,10'bR)-8'-chloro-1-[2-(1H-imidazol-1-yl)ethyl]-5',5'-dimethyl-4'a,10'b-dihydro-2'H,4'H,5'H-spiro[piperidine-4,3'-pyrano[3,2-c][1]benzopyran] diphosphate]",Number of patients with any TEAE,[1],2 (100) n (%)
same,TEAE: constipation,[1],0 n (%)
same,TEAE: decreased appetite,[1],0 n (%)
same,TEAE: decreased lymphocyte count,[1],0 n (%)
same,TEAE: decreased neutrophil count,[1],0 n (%)
same,TEAE: decreased platelet count,[1],0 n (%)
same,TEAE: decreased white blood cell count,[1],0 n (%)
same,TEAE: dry skin,[1],1 (50.0) n (%)
same,TEAE: fall,[1],0 n (%)
same,TEAE: headache,[1],0 n (%)
same,TEAE: hypertrigly-ceridaemia,[1],0 n (%)
same,TEAE: hyponatremia,[1],0 n (%)
same,TEAE: increased alanine aminotransferase,[1],1 (50.0) n (%)
same,TEAE: increased aspartate aminotransferase,[1],1 (50.0) n (%)
same,TEAE: nausea,[1],1 (50.0) n (%)
same,TEAE: seizure,[1],1 (50.0) n (%)
same,TEAE: vomiting,[1],0 n (%)
same,Number of Patients with Any TEAE,[2],2 (100) n (%)
same,TEAE: Confusional state,[2],0 n (%)
same,TEAE: Gait disturbance,[2],0 n (%)
same,TEAE: Gastrointestinal disorder,[2],0 n (%)
same,TEAE: Hiccups,[2],0 n (%)
same,TEAE: Tremor,[2],0 n (%)
same,TEAE: alopecia,[2],0 n (%)
same,TEAE: constipation,[2],0 n (%)
same,TEAE: decreased appetite,[2],0 n (%)
same,TEAE: decreased lymphocyte count,[2],0 n (%)
same,TEAE: decreased neutrophil count,[2],0 n (%)
same,TEAE: decreased platelet count,[2],0 n (%)
same,TEAE: diarrhea,[2],0 n (%)
same,TEAE: dry skin,[2],1 (50.0) n (%)
same,TEAE: fall,[2],0 n (%)
same,TEAE: fatigue,[2],0 n (%)
same,TEAE: headache,[2],0 n (%)
same,TEAE: hypertrigly-ceridaemia,[2],0 n (%)
same,TEAE: hyponatremia,[2],0 n (%)
same,TEAE: increase in blood cholesterol,[2],0 n (%)
same,TEAE: increased alanine aminotransferase,[2],1 (50.0) n (%)
same,TEAE: increased aspartate aminotransferase,[2],1 (50.0) n (%)
same,TEAE: maculopapular rash,[2],0 n (%)
same,TEAE: nausea,[2],1 (50.0) n (%)
same,TEAE: seizure,[2],1 (50.0) n (%)
same,TEAE: vomiting,[2],0 n (%)
same,dose-limiting toxicities,"20 mg to 240 mg, cutoff April 21, 2023",No dose-limiting toxicities were observed at any dose level
same,serious TEAE: seizure,"20 mg, 120 mg, and 180 mg groups, cutoff April 21, 2023",three
same,Number of patients with any TEAE,[3],4 (100) n (%)
same,TEAE: constipation,[3],1 (25.0) n (%)
same,TEAE: decreased appetite,[3],1 (25.0) n (%)
same,TEAE: decreased lymphocyte count,[3],2 (50.0) n (%)
same,TEAE: decreased neutrophil count,[3],2 (50.0) n (%)
same,TEAE: decreased platelet count,[3],2 (50.0) n (%)
same,TEAE: decreased white blood cell count,[3],2 (50.0) n (%)
same,TEAE: dry skin,[3],0 n (%)
same,TEAE: fall,[3],1 (25.0) n (%)
same,TEAE: headache,[3],1 (25.0) n (%)
same,TEAE: hypertrigly-ceridaemia,[3],1 (25.0) n (%)
same,TEAE: hyponatremia,[3],1 (25.0) n (%)
same,TEAE: increased alanine aminotransferase,[3],1 (25.0) n (%)
same,TEAE: increased aspartate aminotransferase,[3],2 (50.0) n (%)
same,TEAE: nausea,[3],2 (50.0) n (%)
same,TEAE: seizure,[3],1 (25.0) n (%)
same,TEAE: vomiting,[3],1 (25.0) n (%)
same,Number of Patients with Any TEAE,[4],4 (100) n (%)
same,TEAE: Confusional state,[4],0 n (%)
same,TEAE: Gait disturbance,[4],0 n (%)
same,TEAE: Gastrointestinal disorder,[4],0 n (%)
same,TEAE: Hiccups,[4],2 (50.0) n (%)
same,TEAE: Tremor,[4],0 n (%)
same,TEAE: alopecia,[4],1 (25.0) n (%)
same,TEAE: constipation,[4],1 (25.0) n (%)
same,TEAE: decreased appetite,[4],1 (25.0) n (%)
same,TEAE: decreased lymphocyte count,[4],2 (50.0) n (%)
same,TEAE: decreased neutrophil count,[4],2 (50.0) n (%)
same,TEAE: decreased platelet count,[4],2 (50.0) n (%)
same,TEAE: diarrhea,[4],0 n (%)
same,TEAE: dry skin,[4],0 n (%)
same,TEAE: fall,[4],1 (25.0) n (%)
same,TEAE: fatigue,[4],1 (25.0) n (%)
same,TEAE: headache,[4],1 (25.0) n (%)
same,TEAE: hypertrigly-ceridaemia,[4],1 (25.0) n (%)
same,TEAE: hyponatremia,[4],1 (25.0) n (%)
same,TEAE: increase in blood cholesterol,[4],0 n (%)
same,TEAE: increased alanine aminotransferase,[4],1 (25.0) n (%)
same,TEAE: increased aspartate aminotransferase,[4],2 (50.0) n (%)
same,TEAE: maculopapular rash,[4],0 n (%)
same,TEAE: nausea,[4],2 (50.0) n (%)
same,TEAE: seizure,[4],1 (25.0) n (%)
same,TEAE: vomiting,[4],1 (25.0) n (%)
same,serious TEAE: disease progression,"40 mg QD group, cutoff April 21, 2024",one
same,serious TEAE: disease progression,"40 mg group, cutoff April 21, 2023",one
same,Number of patients with any TEAE,[5],3 (100) n (%)
same,TEAE: constipation,[5],0 n (%)
same,TEAE: decreased appetite,[5],0 n (%)
same,TEAE: decreased lymphocyte count,[5],0 n (%)
same,TEAE: decreased neutrophil count,[5],2 (66.7) n (%)
same,TEAE: decreased platelet count,[5],1 (33.3) n (%)
same,TEAE: decreased white blood cell count,[5],1 (33.3) n (%)
same,TEAE: dry skin,[5],0 n (%)
same,TEAE: fall,[5],0 n (%)
same,TEAE: headache,[5],1 (33.3) n (%)
same,TEAE: hypertrigly-ceridaemia,[5],0 n (%)
same,TEAE: hyponatremia,[5],1 (33.3) n (%)
same,TEAE: increased alanine aminotransferase,[5],2 (66.7) n (%)
same,TEAE: increased aspartate aminotransferase,[5],0 n (%)
same,TEAE: nausea,[5],2 (66.7) n (%)
same,TEAE: seizure,[5],0 n (%)
same,TEAE: vomiting,[5],0 n (%)
same,Number of Patients with Any TEAE,[6],3 (100) n (%)
same,TEAE: Confusional state,[6],0 n (%)
same,TEAE: Gait disturbance,[6],0 n (%)
same,TEAE: Gastrointestinal disorder,[6],0 n (%)
same,TEAE: Hiccups,[6],0 n (%)
same,TEAE: Tremor,[6],0 n (%)
same,TEAE: alopecia,[6],0 n (%)
same,TEAE: constipation,[6],0 n (%)
same,TEAE: decreased appetite,[6],0 n (%)
same,TEAE: decreased lymphocyte count,[6],0 n (%)
same,TEAE: decreased neutrophil count,[6],2 (66.7) n (%)
same,TEAE: decreased platelet count,[6],1 (33.3) n (%)
same,TEAE: diarrhea,[6],0 n (%)
same,TEAE: dry skin,[6],0 n (%)
same,TEAE: fall,[6],0 n (%)
same,TEAE: fatigue,[6],0 n (%)
same,TEAE: headache,[6],1 (33.3) n (%)
same,TEAE: hypertrigly-ceridaemia,[6],0 n (%)
same,TEAE: hyponatremia,[6],1 (33.3) n (%)
same,TEAE: increase in blood cholesterol,[6],0 n (%)
same,TEAE: increased alanine aminotransferase,[6],2 (66.7) n (%)
same,TEAE: increased aspartate aminotransferase,[6],0 n (%)
same,TEAE: maculopapular rash,[6],0 n (%)
same,TEAE: nausea,[6],2 (66.7) n (%)
same,TEAE: seizure,[6],0 n (%)
same,TEAE: vomiting,[6],0 n (%)
same,Number of patients with any TEAE,[7],6 (100) n (%)
same,TEAE: constipation,[7],2 (33.3) n (%)
same,TEAE: decreased appetite,[7],0 n (%)
same,TEAE: decreased lymphocyte count,[7],0 n (%)
same,TEAE: decreased neutrophil count,[7],1 (16.7) n (%)
same,TEAE: decreased platelet count,[7],0 n (%)
same,TEAE: decreased white blood cell count,[7],0 n (%)
same,TEAE: dry skin,[7],1 (16.7) n (%)
same,TEAE: fall,[7],1 (16.7) n (%)
same,TEAE: headache,[7],2 (33.3) n (%)
same,TEAE: hypertrigly-ceridaemia,[7],1 (16.7) n (%)
same,TEAE: hyponatremia,[7],1 (16.7) n (%)
same,TEAE: increased alanine aminotransferase,[7],2 (33.3) n (%)
same,TEAE: increased aspartate aminotransferase,[7],1 (16.7) n (%)
same,TEAE: nausea,[7],2 (33.3) n (%)
same,TEAE: seizure,[7],1 (16.7) n (%)
same,TEAE: vomiting,[7],2 (33.3) n (%)
same,Number of Patients with Any TEAE,[8],6 (100) n (%)
same,TEAE: Confusional state,[8],0 n (%)
same,TEAE: Gait disturbance,[8],0 n (%)
same,TEAE: Gastrointestinal disorder,[8],0 n (%)
same,TEAE: Hiccups,[8],0 n (%)
same,TEAE: Tremor,[8],0 n (%)
same,TEAE: alopecia,[8],0 n (%)
same,TEAE: constipation,[8],2 (33.3) n (%)
same,TEAE: decreased appetite,[8],0 n (%)
same,TEAE: decreased lymphocyte count,[8],0 n (%)
same,TEAE: decreased neutrophil count,[8],1 (16.7) n (%)
same,TEAE: decreased platelet count,[8],0 n (%)
same,TEAE: diarrhea,[8],1 (16.7) n (%)
same,TEAE: dry skin,[8],1 (16.7) n (%)
same,TEAE: fall,[8],1 (16.7) n (%)
same,TEAE: fatigue,[8],0 n (%)
same,TEAE: headache,[8],2 (33.3) n (%)
same,TEAE: hypertrigly-ceridaemia,[8],1 (16.7) n (%)
same,TEAE: hyponatremia,[8],1 (16.7) n (%)
same,TEAE: increase in blood cholesterol,[8],0 n (%)
same,TEAE: increased alanine aminotransferase,[8],2 (33.3) n (%)
same,TEAE: increased aspartate aminotransferase,[8],1 (16.7) n (%)
same,TEAE: maculopapular rash,[8],0 n (%)
same,TEAE: nausea,[8],2 (33.3) n (%)
same,TEAE: seizure,[8],1 (16.7) n (%)
same,TEAE: vomiting,[8],2 (33.3) n (%)
same,serious TEAE: aphasia,"120 mg QD group, cutoff April 21, 2024",one
same,serious TEAE: aphasia,"120 mg group, cutoff April 21, 2023",one
same,Number of patients with any TEAE,[9],3 (100) n (%)
same,TEAE: constipation,[9],1 (33.3) n (%)
same,TEAE: decreased appetite,[9],1 (33.3) n (%)
same,TEAE: decreased lymphocyte count,[9],1 (33.3) n (%)
same,TEAE: decreased neutrophil count,[9],1 (33.3) n (%)
same,TEAE: decreased platelet count,[9],1 (33.3) n (%)
same,TEAE: decreased white blood cell count,[9],0 n (%)
same,TEAE: dry skin,[9],0 n (%)
same,TEAE: fall,[9],1 (33.3) n (%)
same,TEAE: headache,[9],0 n (%)
same,TEAE: hypertrigly-ceridaemia,[9],1 (33.3) n (%)
same,TEAE: hyponatremia,[9],0 n (%)
same,TEAE: increased alanine aminotransferase,[9],2 (66.7) n (%)
same,TEAE: increased aspartate aminotransferase,[9],0 n (%)
same,TEAE: nausea,[9],1 (33.3) n (%)
same,TEAE: seizure,[9],1 (33.3) n (%)
same,TEAE: vomiting,[9],1 (33.3) n (%)
same,Number of Patients with Any TEAE,[10],6 (100) n (%)
same,TEAE: Confusional state,[10],1 (16.7) n (%)
same,TEAE: Gait disturbance,[10],1 (16.7) n (%)
same,TEAE: Gastrointestinal disorder,[10],2 (33.3) n (%)
same,TEAE: Hiccups,[10],0 n (%)
same,TEAE: Tremor,[10],2 (33.3) n (%)

# Reference: patent EP4806435A1, “DIHYDROCHROMENE-DERIVATIVE-CONTAINING THERAPEUTIC AGENT FOR CANCER” (Sumitomo Pharma Co., Ltd., priority 2023, dated 2025)
